# Like-named read-outs stand apart in the source and are kept apart here.
# Columns and labels:
# [1] = system: MGC803 (human gastric carcinoma cells); assay type: cell-based; conditions: 72 h
# From the text: (§1) A part of the compounds of the examples of the present disclosure were subjected to a tumor cell proliferation inhibition test by using an MTT method (e.g. Pharmacological Research Method of New Drug, 2007: 242-243, edited by Lu Qiujun).
# (§2) A cell strain was selected from KYSE-150 (human esophageal squamous carcinoma cells), MGC803 (human gastric carcinoma cells), and SHG44 (human glioma cells), and frozen and passaged by a pharmacological laboratory of Shanghai Institute of Pharmaceutical Industry. A culture solution was DMEM+10% FBS+double antibody.
# (§3) In-vitro activity test: 100 μL of a cell suspension at a concentration of 4-5×10^4/mL was added to each well of a 96-well plate, and placed in a 5% CO2 incubator at 37° C. After 24 h, a sample solution was added at 10 μL/well, double duplicate wells were set, and a reaction was performed at 37° C. with 5% CO2 for 72 h. 20 μL of 5 mg/ml of an MTT solution was added into each well and reacted for 4 h, a dissolving solution was added at 100 μL/well, the mixture was placed in an incubator, and after dissolution, an OD value at 570 nm was measured with a full-wavelength multifunctional microplate reader. An inhibition rate (IR) and a median inhibitory concentration (IC50) were calculated by using an Excel software.
# (§4) The inhibition rate (IR %) of the drug on cell growth was calculated according to the following equation: […]
# [2] = system: SHG44 (human glioma cells); assay type: cell-based; conditions: 72 h
# From the text: as §1, §2, §3, §4
# [3] = system: KYSE-150 (human esophageal squamous carcinoma cells); assay type: cell-based; conditions: 72 h
# From the text: as §1, §2, §3, §4
# [4] = system: HCT116 (human colon carcinoma cells); test: Tumor cell proliferation inhibition test, CCK-8 method (Example 19); assay type: cell-based
# Experimental: (§5) A part of the compounds prepared in the examples of the present disclosure were subjected to a tumor cell proliferation inhibition test by using a CCK-8 method. A cell line HCT116 (human colon carcinoma cells) and SW1990 (human pancreatic carcinoma cells) were purchased from Shanghai Meixuan Technology Co., Ltd. Samples (a part of the compounds prepared in the examples) were dissolved in DMSO (Merck), prepared into a concentration of 10 mM, and finally triply diluted in DMEM or McCoy's 5A 1640 medium to 8 concentration gradients. A cell culture solution was collected when a cell culture met a test requirement, 10 μL of the cell culture solution was uniformly coated on a cell counting plate, cells were counted for 3 times under a microscope, and a cell density was calculated by taking an average value; and a 96-well plate (Corning, #3599) was taken, 200 μL of the cell culture solution was added into each well for cell inoculation at a cell concentration of 6×10^3 cells per well, and the inoculated 96-well plate was incubated in a cell incubator containing 5% CO2 at 37° C. for 24 h. An old culture medium was removed by suction, 200 μL of the triply diluted sample DMEM or McCoy's 5A 1640 medium at an initial concentration of 10 μmol/L was added to each well, the DMSO content was controlled to be 1%, three duplicate wells were set, PBS was used as a blank control, and the plate was incubated in the incubator for 72 h. The original DMEM or McCoy's 5A 1640 medium in the 96-well plate and a PBS buffer in a final row were sucked out, a prepared CCK-8 solution (90% DMEM or McCoy's 5A 1640 medium+10% CCK-8) was added, the mixture was incubated in an incubator, and an absorbance was read by using a Biotek microplate reader. Cell growth inhibition rate IC %=(blank control well OD value−administration well OD value)/blank control well OD value×100%.
# [5] = system: SW1990 (human pancreatic carcinoma cells); test: as above; assay type: cell-based
# Experimental: as §5
# [6] = In-vivo antitumor activity test in human stromal tumor SHG44 (subcutaneous tumor block in nude mice); set-up: species or system BALB/C nude mice; conditions: SHG44; 10 mg/kg, Ipx5 each week for 2 continuous weeks; d22; in g (unit assumed)
# Experimental: (§6) Animals: BALB/C nude mice (SPF grade), male, and 18-20 g. The compounds were firstly added with DMSO at a total amount of 4%, then added with Tween-80 at a total amount of 2% for assisting dissolution, then added with PEG300 at a total amount of 5%, and finally added with sterilized normal saline to be prepared into a solution at 1 mg/mL. Idasanutlin was firstly added with DMSO at a total amount of 4%, then added with Tween-80 at a total amount of 2% for assisting dissolution, then added with PEG300 at a total amount of 5%, and finally added with sterilized normal saline to be prepared into a solution at 2.5 mg/mL.
# (§7) A well-grown human stromal tumor SHG44 mass was taken and aseptically cut into uniform small blocks of about 3 mm in size, and a right axilla of each mouse was subcutaneously inoculated with one block through a trocar. […] The animals were regrouped according to a tumor size. The animals with too large and too small tumors were sifted out. An average tumor volume in each group was approximately the same. An administration was started according to the following solution with an administration volume of 0.2 mL/20 g body weight. A long diameter a (mm) of the tumor and a short diameter b (mm) vertical to the tumor were measured by a digital display electronic caliper 2 times a week from day 9 of the inoculation. A tumor volume was calculated by the formula: TV=ab^2/2, and a relative tumor volume was calculated by the formula: RTV=Vt/Vo, wherein Vo was the obtained tumor volume measured at a cage separation (i.e. d1) and Vt was the tumor volume measured at each time. The animals were sacrificed 30 days after the inoculation (d22) and weighed, tumor mass was obtained by dissection and weighed, and the results were determined according to the following formula: […]
# [7] = system: human esophageal cancer KYSE-150; test: In-vivo antitumor activity test in human esophageal cancer KYSE-150 (subcutaneous tumor block in nude mice); set-up: species or system BALB/C nude mice; conditions: KYSE-150; 10 mg/kg, Ipx5 each week for 2 continuous weeks; d22
# Experimental: as §6
# as §7, with “esophageal cancer KYSE-150” for “stromal”, “tumor” for “tumor SHG44”
# [8] = system: human gastric carcinoma MGC803; test: In-vivo antitumor activity test in human gastric carcinoma MGC803 (subcutaneous tumor block in nude mice); set-up: species or system BALB/C nude mice; conditions: MGC803; 10 mg/kg, Ipx5 each week for 2 continuous weeks; d22
# Experimental: as §6
# as §7, with “gastric carcinoma MGC803” for “stromal”, “tumor” for “tumor SHG44”
SMILES,IC50 [1] [nM],IC50 [2] [nM],IC50 [3] [nM],IC50 ([4]; 72 h) [nM],IC50 ([5]; 72 h) [nM],Body weight of animals (After a tumor is removed) [6],Body weight of animals (After a tumor is removed) [7],Body weight of animals (After a tumor is removed) [8],"IC50 ([1]; MTT, Table 2, read-out: IC50 MGC803) [nM]","IC50 ([2]; MTT, Table 2, read-out: IC50 SHG44) [nM]","IC50 ([3]; MTT, Table 2, read-out: IC50 KYSE-150) [nM]","IC50 ([4]; CCK-8, 72 h, Table 1, read-out: IC50 HCT116) [nM]","IC50 ([5]; CCK-8, 72 h, Table 1, read-out: IC50 SW1990) [nM]"
COc1cc(C(=O)NCCOCCOCCOCCOCCC(=O)NCC(=O)NCC(=O)N[C@@H](Cc2ccccc2)C(=O)NCC(=O)Nc2ccc(COC(=O)N3CCN(C(=O)O[C@H]4CC[C@@]5(C)[C@H](CC[C@@H]6[C@@H]5[C@H](O)C(=O)[C@]5(C)[C@@H](c7ccc(=O)oc7)CC[C@]65O)C4)CC3)cc2)ccc1NC(=O)[C@@H]1N[C@@H](CC(C)(C)C)[C@](C#N)(c2ccc(Cl)cc2F)[C@H]1c1cccc(Cl)c1F [Compound I-16],402,41,243,210,22,25.13 ± 0.97,,,,,,,
COc1cc(C(=O)NCCOCCOCCOCCOCCC(=O)N[C@@H](C(=O)N[C@@H](CCCNC(N)=O)C(=O)Nc2ccc(COC(=O)N3CCC(NC(=O)O[C@H]4CC[C@]5(C)C6CC[C@]7(C)[C@@H](c8ccc(=O)oc8)CC[C@]7(O)C6CC[C@@H]5C4)CC3)cc2)C(C)C)ccc1NC(=O)[C@@H]1N[C@@H](CC(C)(C)C)[C@](C#N)(c2ccc(Cl)cc2F)[C@H]1c1cccc(Cl)c1F (stereo partly shown) [Compound I-4],1670,319,1060,728,576,26.10 ± 2.00,24.99 ± 1.48,24.95 ± 1.62,,,,,
COc1cc(C(=O)NCCOCCOCCOCCOCCC(=O)NCC(=O)NCC(=O)N[C@@H](Cc2ccccc2)C(=O)NCC(=O)Nc2ccc(COC(=O)N3CCC(NC(=O)O[C@H]4CC[C@]5(C)C6CC[C@]7(C)[C@@H](c8ccc(=O)oc8)CC[C@]7(O)C6CC[C@@H]5C4)CC3)cc2)ccc1NC(=O)[C@@H]1N[C@@H](CC(C)(C)C)[C@](C#N)(c2ccc(Cl)cc2F)[C@H]1c1cccc(Cl)c1F (stereo partly shown) [Compound I-17],1620,204,1890,898,287,25.60 ± 0.98,,,,,,,
COc1cc(C(=O)NCCOCCOCCOCCOCCC(=O)N[C@@H](C(=O)N[C@@H](CCCNC(N)=O)C(=O)Nc2ccc(COC(=O)NC3=C(C)C(=O)C4=C(C3=O)[C@@H](COC(N)=O)[C@@]3(OC)[C@H]5N[C@H]5CN43)cc2)C(C)C)ccc1NC(=O)[C@@H]1N[C@@H](CC(C)(C)C)[C@](C#N)(c2ccc(Cl)cc2F)[C@H]1c1cccc(Cl)c1F [Compound I-6],,,,,,,,,> 50000,> 50000,19400,542,> 50000

# Reference: patent US20240024494A1, “SMALL-MOLECULE CONJUGATE AND USE THEREOF” (SHANGHAI MEWSGEN BIOTECHNOLOGY CO., LTD, priority 2020, published 2024)
